From PubChem BioAssay (NCI)
Several values for one entry are separate records, joined by “and”; a condition that tells them apart may be missing. Identical values can stand only once.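 1) Cells in 96-well plates. 2) Compound, 48 h, 5 concentrations. 3) Linear interpolation between surrounding doses. 4) Unreached endpoint = highest concentration. GI50 marks 50% less growth. Definition used: TGI = concentration required for complete inhibition of growth.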

What was measured:
Experiment in all cases: NCI anticancer screen, dose series, 48 h
NCI/ADR-RES ovarian = system: NCI/ADR-RES ovarian
HOP-62 NSCLC = system: HOP-62 NSCLC
SF-539 CNS = system: SF-539 CNS
DU-145 prostate = system: DU-145 prostate
SR leukemia = system: SR leukemia
MDA-MB-231 breast = system: MDA-MB-231 breast
SNB-75 CNS = system: SNB-75 CNS
CAKI-1 renal = system: CAKI-1 renal
T-47D breast = system: T-47D breast
M14 melanoma = system: M14 melanoma

| SMILES | TGI (NCI/ADR-RES ovarian) [µM] | TGI (HOP-62 NSCLC) [µM] | TGI (SF-539 CNS) [µM] | TGI (DU-145 prostate) [µM] | TGI (SR leukemia) [µM] | TGI (MDA-MB-231 breast) [µM] | TGI (SNB-75 CNS) [µM] | TGI (CAKI-1 renal) [µM] | TGI (T-47D breast) [µM] | TGI (M14 melanoma) | GI50 (SF-539 CNS) | GI50 (SR leukemia) | GI50 (T-47D breast) | GI50 (M14 melanoma) | GI50 (NCI/ADR-RES ovarian) [µM] |
| --- | --- | --- | --- | --- | --- | --- | --- | --- | --- | --- | --- | --- | --- | --- | --- |
| O=S(=O)(Oc1ccc2oc3ccccc3c2c1-c1c(OS(=O)(=O)C(F)(F)F)ccc2oc3ccccc3c12)C(F)(F)F | > 100 | > 100 | > 100 | > 100 | > 100 | > 100 | > 100 | > 100 | > 100 | > 100 µM | – | – | – | – | – |
| O=c1cc(CNC2CCCC2)[nH]c(=O)[nH]1 | > 100 | > 100 | > 100 | > 100 | > 100 | > 100 | > 100 | > 100 | > 100 | > 100 µM | – | – | – | – | – |
| C=C(C)C(=O)CC[C@@H](C)[C@H]1[C@@H](OC2OC(CO)C(O)C(O)C2O)C[C@@]2(C)[C@@H]3C[C@H](O)C4C(C)(C)[C@@H](OC5OC(CO)C(O)C(O)C5O)CC[C@@]45C[C@@]35CC[C@]12C (some centres undefined) | > 100 | > 100 | > 100 | > 100 | > 100 | > 100 | > 100 | > 100 | > 100 | > 100 µM | – | – | – | – | – |
| O=C1Oc2ccccc2C(=O)/C1=C/N1C(=O)N/C(=C\c2ccccc2O)C1=O | > 100 | > 100 | > 100 | > 100 | > 100 | > 100 | > 100 | > 100 | > 85.5 | > 100 µM | – | – | – | – | – |
| O=C(Cn1c(=O)oc2ccc(C(=O)c3ccc(F)cc3)cc21)c1ccc([N+](=O)[O-])cc1 | > 100 | > 100 | > 100 | > 100 | > 100 | > 100 | > 100 | > 100 | > 100 | > 100 µM | – | – | – | – | – |
| COc1cccc2c1OC1c3ccccc3OCC1C2 (centres undefined) | > 100 | > 100 | > 100 | > 100 | > 100 | > 100 | 20.6 | > 100 | > 100 | > 100 µM | – | – | – | – | – |
| COc1ccc2oc(=N)c(C(=O)Nc3cccc4ccccc34)cc2c1 | > 100 | 26.9 | > 100 | > 100 | 28.5 | 79.1 | 32.9 | > 100 | > 100 | > 100 µM | – | – | – | – | – |
| O=c1[nH]c(=O)n(C2CC(O)C(CO)O2)cc1I (centres undefined) | > 100 | > 100 | > 100 | > 100 | > 100 | > 100 | > 100 | > 100 | > 100 | > 100 µM | – | – | – | – | – |
| O=C1c2ccccc2C(=O)N1n1c(Cc2ccccc2)n[nH]c1=O | > 100 | > 100 | > 100 | > 100 | > 100 | > 100 | > 100 | > 100 | > 100 | > 100 µM | – | – | – | – | – |
| CCOC(=O)c1cccc(NC(=O)CCl)c1 | 22.7 | 6.15 | 5.78 | 22.7 | 7.46 | 14.5 | 9.22 | 3.42 | 10.1 | 24.9 µM | – | – | – | – | – |
| O=C1NC(N/N=C\C(O)C(O)C(O)CO)=N/C1=C/c1ccccc1 (centres undefined) | > 100 | > 100 | > 100 | > 100 | > 100 | > 100 | > 100 | > 100 | > 100 | > 100 µM and 76.9 µM | > 100 µM and 34.3 µM | > 100 µM and 44.1 µM | > 100 µM and 49.2 µM | > 100 µM and 30.4 µM | – |
| C/C=C/[C@@]1(OC(=O)c2ccccc2)C[C@@H]2CCCC[C@@H]21 | 41.1 | 29 | 33.1 | 31.4 | 37.9 | 36.3 | 27.3 | 31.4 | 36.5 | 32.3 µM | – | – | – | – | – |
| CC(=O)NC1C(OCc2ccccc2)OC(CO)C(O)C1OCC(=O)NC(C)C(=O)NC(CCC(=O)NCCCCNc1ccc([N+](=O)[O-])c2[nH]c3ccccc3c(=O)c12)C(N)=O (centres undefined) | > 100 | > 100 | > 100 | > 100 | > 100 | > 100 | > 100 | > 100 | > 100 | > 100 µM | – | – | – | – | – |
| O=C1N[C@H]2c3c(Cl)sc(Cl)c3/C(=N/O)[C@H]2O1 | > 100 | > 100 | > 100 | > 100 | > 100 | > 100 | > 100 | > 100 | > 100 | > 100 µM | – | – | – | – | – |
| CCOC(=O)CCCn1nnc(C(=O)OCC)c1C(=O)OCC | > 100 | > 100 | > 100 | > 100 | > 100 | > 100 | > 100 | > 100 | > 100 | – | – | – | – | – | – |
| c1ccc(C2=NC3(CCCCC3)N(c3nc4ccccc4s3)N2)nc1 | 65.3 | > 100 | > 100 | > 100 | 26.8 | 64.7 | 76.6 | 91.5 | 49.6 | 59.2 µM | – | – | – | – | – |

| SMILES | TGI (NCI/ADR-RES ovarian) [µM] | TGI (HOP-62 NSCLC) [µM] | TGI (SF-539 CNS) [µM] | TGI (DU-145 prostate) [µM] | TGI (SR leukemia) [µM] | TGI (MDA-MB-231 breast) [µM] | TGI (SNB-75 CNS) [µM] | TGI (CAKI-1 renal) [µM] | TGI (T-47D breast) [µM] | TGI (M14 melanoma) | GI50 (SF-539 CNS) | GI50 (SR leukemia) | GI50 (T-47D breast) | GI50 (M14 melanoma) | GI50 (NCI/ADR-RES ovarian) [µM] |
| --- | --- | --- | --- | --- | --- | --- | --- | --- | --- | --- | --- | --- | --- | --- | --- |
| COC(=O)c1c2c(cc3c1CC1(Cc4ccccc4C1=O)C3)CCC2 (centres undefined) | 79.3 | > 100 | > 100 | > 100 | 58.5 | > 100 | > 100 | > 100 | > 100 | > 100 µM | – | – | – | – | – |
| O=C(CP(c1ccccc1)c1ccccc1)c1cccc(C(=O)CP(c2ccccc2)c2ccccc2)c1 | > 100 | > 100 | > 100 | > 100 | 61.5 | > 100 | > 100 | > 100 | 94.8 | > 100 µM | – | – | – | – | – |
| CCCC(=O)O | > 18700 | > 18700 | 16900 | 13200 | 5340 | 18000 | > 18700 | 12000 | 9400 | > 18700 µM | – | – | – | – | 1460 |
| Nc1nc2c(=O)c3ccccc3sc2s1 | 90.5 | > 100 | 48.2 | > 100 | > 100 | > 100 | > 100 | 91.6 | > 100 | > 100 µM | – | – | – | – | – |
| CC[n+]1cnc(N)c2c(-c3ccc(Cl)cc3)cn(-c3ccc(C)cc3)c21 | 26.5 | 30.5 | 28.5 | 31.8 | 19.1 | 31.7 | 14.1 | 30.6 | 32.2 | 4.14 µM | – | – | – | – | – |
| O=C(CSCC(=O)N/N=C/c1cc(I)cc(I)c1O)N/N=C/c1cc(I)cc(I)c1O | 59.9 | 33.4 | 38.1 | > 100 | 14 | 25.1 | 19.5 | > 100 | > 100 | 43.6 µM | – | – | – | – | – |
| C=C(C)[C@@]1(O)O[C@H]2C[C@@]3(C)OC(=CC3=O)/C(C)=C\[C@@H]3OC(=O)[C@@]1(C)[C@H]32 | > 100 | > 100 | 56 | > 100 | > 64.4 | 43.9 | 68.3 | 42.9 | 59.2 | 37.5 µM | – | – | – | – | – |
| O=C1c2c(F)c(F)c(F)c(F)c2SC2=NCCN12 | 31.3 | 32.6 | 30 | 31 | 4.45 | 22.2 | 29.9 | 6.67 | 29 | 14.1 µM | – | – | – | – | – |
| Clc1ccc2c(SCC3CO3)c3ccccc3nc2c1 (centres undefined) | 7.24 | 17.6 | 7.11 | 2.95 | 4.56 | 6.64 | 60.5 | 2.88 | 4.97 | 3.34 µM | – | – | – | – | – |
| Cc1ccc(C2CC(=O)CC(c3ccc(C)cc3)C23C(=O)NC(=O)NC3=O)cc1 (centres undefined) | > 100 | > 100 | > 100 | > 100 | > 100 | > 100 | > 100 | > 100 | > 100 | > 100 µM | – | – | – | – | – |
| CCOc1cc2c(cc1O)/C(=N\N)C[C@@H]1[C@@H]2CC[C@]2(C)[C@@H](O)CC[C@@H]12 | > 28.2 | > 100 | 38 | > 66.8 | > 100 | > 42.9 | > 25.8 | 40.6 | > 39.5 | > 41.7 µM | – | – | – | – | – |
| CCOc1ccc2nc(NC(=O)C(=O)C(C(=O)c3ccccc3-c3ccccc3)C3OC(=O)c4ccccc43)sc2c1 (centres undefined) | 37.9 | 99.3 | 36.7 | 56.1 | 43 | 70.8 | 61.6 | 53.2 | 60.7 | > 67.2 µM | – | – | – | – | – |
| CCOC(=O)c1ccc(N=NN(C)C(=O)C(C)N)cc1 (centres undefined) | > 100 | > 100 | > 100 | > 100 | > 100 | > 100 | > 100 | > 100 | > 100 | > 100 µM | – | – | – | – | – |
| OCC1OC(c2scc3c(=S)nc[nH]c23)C(O)C1O (centres undefined) | > 66.3 | > 100 | 57.6 | 19.5 | > 100 | > 69.2 | 30.5 | 63.3 | 9.53 | 60.3 µM | – | – | – | – | – |
| O=C(O)[C@H]1[C@@H](C2CCCCC2)O[C@@H](C2CCCCC2)O[C@H]1C(F)(F)F | > 100 | 50.6 | > 100 | > 100 | 46.9 | 36.2 | 38.2 | 36.4 | > 100 | 39.4 µM | – | – | – | – | – |
| C=C(C)[C@@H]1CC[C@]2(C(=O)O)CC[C@]3(C)[C@H](CC[C@@H]4[C@@]5(C)CC(=O)C(C)(C)[C@@H]5CC[C@]43C)[C@@H]12 | > 25 | > 25 | 14.7 | > 25 | 12.3 | 14.3 | > 25 | > 25 | > 25 | > 25 µM | – | – | – | – | – |
